Assay results taken from patent publication US12612424B2, “HPK1 inhibitors and uses thereof” (Regor Pharmaceuticals, Inc., priority 2019, dated 2026).
Where two headings read alike, the source gives them in different places.

Columns and labels:
[1] = molecular target: HPK1 (Homo sapiens, UniProt Q92918); test: HPK1 biochemical assay (ADP-GLO Kinase Assay)
From the text: IC50 values of any compounds can be determined accordingly over a range of inhibitor concentrations. In addition, the inhibitory effect of the compounds can also be assess using a biological assay, to determine the effect of the compounds on cytokine secretion by T cells following TCR and CD28 stimulation.
Biology Example 1 HPK1 Biochemical Assay
This example used the ADP-GLO™ Kinase Assay to measure the effect of potential HPK1 inhibitor compounds on HPK1 kinase activity.
The ADP-GLO™ Kinase Assay (Promega Corp., Madison, WI) measures ADP formed from a kinase reaction. According to the manufacture, the ADP formed in a kinase assay is first converted into ATP, which is then used to generate light in a luciferase reaction. The luminescence generated correlates with kinase activity. An exemplary experimental setting is described below, though minor adjustments can be made in individual assays.
Serial 3-fold dilution of compounds from 10 μM (top concentration) to 0.508 nM (lowest concentration). Positive control is 10 μM Reference+enzyme+substrate. Negative control is 1% DMSO+enzyme+substrate.
• 1. Buffer Preparation • 40 mM Tris pH7.5; 20 mM MgCl2, 0.1 mg/ml BSA, 50 μM DTT Buffer Stock
Add 20 mL 1M Tris and 10 mL 1M MgCl2 to 470 mL ddH2O to get buffer stock, and stock at RT. • 2. Preparing Fresh 1* Assay Buffer
• 3. Compounds Preparation • 1) The compounds were diluted to 1 mM, by mixing 10 μL of 10 mM respective compound stocks with 90 μL of DMSO. • 2) The compounds were then diluted 3-fold for 10 doses (5 μL to 10 μL dilution) by BRAVO. The top compound conc. was 1 mM (100×), DMSO Conc. was 100%. • 3) Transfer 100 nL of each diluted compound sample to 384-well plate (Corning-4512) by ECHO. • 4) Centrifuge the plate at 1,500 rpm for 1 minute. • 4. Preparation of 2×ATP-MBP Mixture: • 20 μM ATP, 0.2 μg/μL MBP in Kinase Buffer (final concentration: 10 μM ATP, 0.1 MBP)
• 5. Preparation of 2×HPK1 working solution with assay buffer. • HPK1 final concentration was 0.6 ng/μL. […] Incubate at 25° C. for 40 min. • 11. Record luminescence signal on an Envision plate reader (384-CTG). 5. Data Analysis
The percent (%) inhibition at each concentration of compound is calculated based on and relative to the signal in the High and Low control wells contained within each assay plate. […] The concentrations and % inhibition values for tested compounds were plotted and the concentration of compound required for 50% inhibition (IC50) was determined with a Three-parameter logistic dose response equation. The endpoint value (IC50) for the reference peptide/compound was evaluated in each experiment as a quality control measure. If the endpoint value was within 3-fold of the expected value, then the experiment was deemed acceptable.

[2] = molecular target: T1, JAK3 (Homo sapiens, UniProt P52333); test: JAK3 biochemical assay (ADP-GLO Kinase Assay); conditions: for JAKs/HPK1 IC50 Ratio, B* / JAKs/HPK1 IC50 Ratio, N*: ratio of JAK3 IC50 to HPK1 IC50; for JAKs/HPK1 IC50 Ratio, B*: first testing facility; for JAKs/HPK1 IC50 Ratio, N*: second testing facility
T1 construct: purchased Thermo fisher PV3855
T1 sequence (P52333 781-1124 limits assumed): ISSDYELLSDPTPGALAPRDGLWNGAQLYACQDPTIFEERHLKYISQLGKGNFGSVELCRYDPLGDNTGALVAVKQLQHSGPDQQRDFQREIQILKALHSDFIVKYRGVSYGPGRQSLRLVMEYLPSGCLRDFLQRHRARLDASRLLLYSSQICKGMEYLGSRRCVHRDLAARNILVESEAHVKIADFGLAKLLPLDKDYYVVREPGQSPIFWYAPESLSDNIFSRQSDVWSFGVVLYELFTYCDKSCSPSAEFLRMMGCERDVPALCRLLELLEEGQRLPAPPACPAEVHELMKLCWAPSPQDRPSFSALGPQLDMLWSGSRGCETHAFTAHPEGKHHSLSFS
Description: Biology Example 4 JAK3 Biochemical Assay
This example used the ADP-GLO™ Kinase Assay to measure the effect of potential HPK1 inhibitor compounds on JAK3 kinase activity. An exemplary experimental setting is described below, though minor adjustments can be made in individual assays.
3. Procedures • 1. Prepare JAK3 kinase buffer • Freshly adding DTT and BSA into Buffer (Final Conc.: 40 mM Tris pH7.5; 20 mM MgCl2, 0.1 mg/ml BSA, 50 μM DTT).
• 2. Compounds Preparation • For tested compounds: compounds were diluted to 1 mM, by mixing 5 μL of 10 mM compound stocks to 45 μL DMSO. The compounds solutions were then serially diluted 3-fold for 10 doses. The top compound concentration was 1 mM (100×), DMSO concentration was 100%. • 50 nL of each of 10 doses of diluted compound were added to 384-well assay plate (Corning #4512) by ECHO. • For positive control, 50 nL of 1 mM reference compound were added to 384-well assay plate (Corning #4512) by ECHO. • For negative control: 50 nL of DMSO was transferred into 384-well assay plate as a negative control. • The assay plate was centrifuged at 1,500 rpm for 1 minute. • 3. Compounds were Transferred by ECHO Following the Layout Below: • Reference and test compounds 1-15: serial 3-fold dilution from 10 μM to 0.508 nM (10 doses); negative control is 0.78 ng JAK3, 4 μM ATP & 0.2 μg/μL poly, 1% DMSO; positive control is the top dose of the reference compound, 0.78 ng JAK3, 0.2 μg/μL Poly(E4Y1), 4 μMATP, 1% DMSO. • 4. Add 2.5 μL/well of 2×JAK3 working solution using pipette (Thermo, 30 μL multi-channel), Centrifuge at 1,500 rpm for 1 minute. • 5. Add 2.5 μL/well of 2×ATP-Poly(E4Y1) working mixture using pipette (Thermo, 30 μL multi-channel), Centrifuge at 1,500 rpm for 1 minute. • 6. Incubate the assay plate at 25° C. for 60 min. • 7. Add 5 μL/well ADP-GLO™ Reagent by BRAVO to stop the kinase reaction and deplete the unconsumed ATP after 1 hour. Centrifuge at 1,500 rpm for 1 minute. Incubate at 25° C. for 40 min. • 8. Add 10 uL of Kinase Detection Reagent by BRAVO to convert ADP to ATP. Centrifuge at 1,500 rpm for 1 minute. Incubate at 25° C. for 40 min. • 9. Record luminescence signal on an Envision plate reader (384-USL). • 10. Process data using XL-fit. Inhibition %=[1-(test well−Negative control)/(positive control−Negative control)]*100%. 5. Data Analysis
The percent (%) inhibition at each concentration of compound is calculated based on and relative to the signal in the Negative and Positive control wells contained within each assay plate. The Negative control wells served as 0% inhibition, and the Positive control wells served as 100% inhibition. The concentrations and % inhibition values for tested compounds are plotted and the concentration of compound required for 50% inhibition (IC50) is determined with a Three-parameter logistic dose response equation. The endpoint value (IC50) for the reference peptide/compound is evaluated in each experiment as a quality control measure. If the endpoint value was within 3-fold of the expected value then the experiment was deemed acceptable.

[3] = B*: testing performed in a first testing facility, read-out: HPK1 IC50 (nM) Relative, B*
[4] = B*: testing performed in a first testing facility, read-out: JAK3 IC50 (nM) Relative, B*
[5] = N*: testing performed in a second testing facility, read-out: HPK1 IC50 (nM) Relative, N*
[6] = N*: testing performed in a second testing facility, read-out: JAK3 IC50 (nM) Relative, N*

Sequence of HPK1 (Q92918 whole entry): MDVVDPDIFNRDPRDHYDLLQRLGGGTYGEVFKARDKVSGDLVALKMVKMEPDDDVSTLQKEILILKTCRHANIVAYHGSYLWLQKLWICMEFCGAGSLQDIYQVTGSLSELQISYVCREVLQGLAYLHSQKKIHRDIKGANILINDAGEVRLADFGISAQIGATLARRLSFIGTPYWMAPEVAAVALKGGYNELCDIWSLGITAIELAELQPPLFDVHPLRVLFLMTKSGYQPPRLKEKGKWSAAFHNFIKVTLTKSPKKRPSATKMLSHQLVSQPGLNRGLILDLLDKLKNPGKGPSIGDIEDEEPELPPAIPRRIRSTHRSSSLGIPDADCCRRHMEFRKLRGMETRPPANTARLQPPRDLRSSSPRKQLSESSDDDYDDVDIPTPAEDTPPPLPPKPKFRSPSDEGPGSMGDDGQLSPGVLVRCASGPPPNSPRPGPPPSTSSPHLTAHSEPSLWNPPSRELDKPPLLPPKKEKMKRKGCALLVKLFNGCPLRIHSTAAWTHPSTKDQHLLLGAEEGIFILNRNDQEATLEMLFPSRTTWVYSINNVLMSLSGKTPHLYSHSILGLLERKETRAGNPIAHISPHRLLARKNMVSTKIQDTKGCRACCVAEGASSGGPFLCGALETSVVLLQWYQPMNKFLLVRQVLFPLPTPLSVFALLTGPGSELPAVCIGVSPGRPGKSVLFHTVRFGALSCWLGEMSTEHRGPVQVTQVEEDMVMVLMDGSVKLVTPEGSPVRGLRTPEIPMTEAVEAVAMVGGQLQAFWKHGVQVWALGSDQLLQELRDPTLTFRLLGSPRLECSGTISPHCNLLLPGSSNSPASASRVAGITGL

CCc1c[nH]c2ncc(-c3ccc(C(N)=O)c(P(C)(C)=O)c3)cc12 [Example 67, 2-(Dimethylphosphoryl)-4-(3-ethyl-1H-pyrrolo[2,3-b]pyridin-5-yl)benzamide]
IC50 [1, 3]: 100 to 500 nM
IC50 [2, 4]: > 1000 nM
JAKs/HPK1 IC50 Ratio, B* [2]: 10

CCc1c[nH]c2ncc(-c3cc(NC(C)=O)cc(P(C)(C)=O)c3)cc12 [Example 68, N-(3-(dimethylphosphoryl)-5-(3-ethyl-1H-pyrrolo[2,3-b]pyridin-5-yl)phenyl)acetamide]
IC50 [1, 3]: 500 to 1000 nM
IC50 [2, 4]: > 1000 nM
JAKs/HPK1 IC50 Ratio, B* [2]: 2

CCc1c(Cl)[nH]c2ncc(-c3ccc(N)c(P(C)(C)=O)c3)cc12 [Example 69, (2-Amino-5-(2-chloro-3-ethyl-1H-pyrrolo[2,3-b]pyridin-5-yl)phenyl)dimethylphosphine oxide]
IC50 [1, 3]: ≤ 100 nM
IC50 [1, 5]: ≤ 100 nM
IC50 [2, 6]: 500 to 1000 nM
JAKs/HPK1 IC50 Ratio, N* [2]: 52

CCc1c[nH]c2ncc(-c3ccc(N)c(P(C)(C)=O)c3)cc12 [Example 70, (2-Amino-5-(3-ethyl-1H-pyrrolo[2,3-b]pyridin-5-yl)phenyl)dimethylphosphine oxide]
IC50 [1, 3]: ≤ 100 nM
IC50 [1, 5]: ≤ 100 nM
IC50 [2, 4]: 500 to 1000 nM
IC50 [2, 6]: 500 to 1000 nM
JAKs/HPK1 IC50 Ratio, B* [2]: 70
JAKs/HPK1 IC50 Ratio, N* [2]: 50

CCc1c[nH]c2ncc(-c3ccc(C(=O)OC)c(P(C)(C)=O)c3)cc12 [Example 72, Methyl 2-(dimethylphosphoryl)-4-(3-ethyl-1H-pyrrolo[2,3-b]pyridin-5-yl)benzoate]
IC50 [1, 3]: 100 to 500 nM
IC50 [2, 4]: > 1000 nM
JAKs/HPK1 IC50 Ratio, B* [2]: 11

CCc1c[nH]c2ncc(-c3ccc(CO)c(P(C)(C)=O)c3)cc12 [Example 73, (5-(3-Ethyl-1H-pyrrolo[2,3-b]pyridin-5-yl)-2-(hydroxymethyl)phenyl)dimethylphosphine oxide]
IC50 [1, 3]: 100 to 500 nM
IC50 [2, 4]: 500 to 1000 nM
JAKs/HPK1 IC50 Ratio, B* [2]: 5

CCc1c[nH]c2ncc(-c3ccc(CF)c(P(C)(C)=O)c3)cc12 [Example 74, (5-(3-Ethyl-1H-pyrrolo[2,3-b]pyridin-5-yl)-2-(fluoromethyl)phenyl)dimethylphosphine oxide]
IC50 [1, 3]: 100 to 500 nM
IC50 [2, 4]: > 1000 nM
JAKs/HPK1 IC50 Ratio, B* [2]: 19

CCc1c[nH]c2ncc(-c3ccc(N)c(P(C)(C)=O)n3)cc12 [Example 75, (3-Amino-6-(3-ethyl-1H-pyrrolo[2,3-b]pyridin-5-yl)pyridin-2-yl)dimethylphosphine oxide]
IC50 [1, 3]: ≤ 100 nM
IC50 [2, 4]: > 1000 nM
JAKs/HPK1 IC50 Ratio, B* [2]: 59

CCc1c[nH]c2ncc(-c3ccc(NC4COC4)c(P(C)(C)=O)c3)cc12 [Example 76, (5-(3-Ethyl-1H-pyrrolo[2,3-b]pyridin-5-yl)-2-(oxetan-3-ylamino)phenyl)dimethylphosphine oxide]
IC50 [1, 3]: 500 to 1000 nM
IC50 [2, 4]: > 1000 nM
JAKs/HPK1 IC50 Ratio, B* [2]: 4

CC(C)c1c[nH]c2ncc(-c3ccc(N)c(P(C)(C)=O)c3)cc12 [Example 77, (2-Amino-5-(3-isopropyl-1H-pyrrolo[2,3-b]pyridin-5-yl)phenyl)dimethylphosphine oxide]
IC50 [1, 3]: ≤ 100 nM
IC50 [2, 4]: > 1000 nM
JAKs/HPK1 IC50 Ratio, B* [2]: 76

CCc1c[nH]c2ncc(-c3ccc(C(F)(F)F)c(P(C)(C)=O)c3)cc12 [Example 78, (5-(3-Ethyl-1H-pyrrolo[2,3-b]pyridin-5-yl)-2-(trifluoromethyl)phenyl)dimethylphosphine oxide]
IC50 [1, 3]: 500 to 1000 nM
IC50 [2, 4]: > 1000 nM
JAKs/HPK1 IC50 Ratio, B* [2]: >15

COc1cc2c(cc1Nc1ncc(Cl)c(-n3cc(S(C)(=O)=O)c4ccccc43)n1)CN(C)CC2 [Example 80, N-(5-chloro-4-(3-(methylsulfonyl)-1H-indol-1-yl)pyrimidin-2-yl)-6-methoxy-2-methyl-1,2,3,4-tetrahydroisoquinolin-7-amine]
IC50 [1, 3]: ≤ 100 nM
IC50 [2, 4]: > 1000 nM
JAKs/HPK1 IC50 Ratio, B* [2]: >1172

COc1cc2c(cc1Nc1ncc(Cl)c(-n3cc(CS(C)(=O)=O)c4ccccc43)n1)CN(C)CC2 [Example 82, N-(5-chloro-4-(3-((methylsulfonyl)methyl)-1H-indol-1-yl)pyrimidin-2-yl)-6-methoxy-2-methyl-1,2,3,4-tetrahydroisoquinolin-7-amine]
IC50 [1, 3]: ≤ 100 nM
IC50 [2, 4]: > 1000 nM
JAKs/HPK1 IC50 Ratio, B* [2]: 800

COc1cc2c(cc1Nc1ncc(Cl)c(N3CCc4cc(Br)ccc43)n1)CN(C)CC2 [Example 85, N-(4-(5-bromoindolin-1-yl)-5-chloropyrimidin-2-yl)-6-methoxy-2-methyl-1,2,3,4-tetrahydroisoquinolin-7-amine]
IC50 [1, 3]: ≤ 100 nM
IC50 [2, 4]: > 1000 nM
JAKs/HPK1 IC50 Ratio, B* [2]: 178

COc1cc2c(cc1Nc1ncc(Cl)c(N3CCc4c(OC)cccc43)n1)CN(C)CC2 [Example 89, N-(5-chloro-4-(4-methoxyindolin-1-yl)pyrimidin-2-yl)-6-methoxy-2-methyl-1,2,3,4-tetrahydroisoquinolin-7-amine]
IC50 [1, 3]: ≤ 100 nM
IC50 [2, 4]: > 1000 nM
JAKs/HPK1 IC50 Ratio, B* [2]: 944

COc1cc2c(cc1Nc1ncc(Cl)c(-n3cc(NS(C)(=O)=O)c4ccccc43)n1)CN(C)CC2 [Example 94, N-(1-(5-chloro-2-((6-methoxy-2-methyl-1,2,3,4-tetrahydroisoquinolin-7-yl)amino)pyrimidin-4-yl)-1H-indol-3-yl)methanesulfonamide]
IC50 [1, 3]: ≤ 100 nM
IC50 [2, 4]: > 1000 nM
JAKs/HPK1 IC50 Ratio, B* [2]: 449
